Columns and labels:
[1] = biological target: Recombinant Human NF-Kappab-Inducing Kinase (NIK/MAP3K14) (Homo sapiens, UniProt Q99558); experiment: Inhibition of auto-phosphorylation of recombinant human NIK/MAP3K14 (AlphaScreen); assay type: biochemical; conditions: NIK/MAP3K14 auto-phosphorylation, 5 microM ATP, 1 nM enzyme, 2 h at 25° C.; average of values; read-out: Assay 1 IC50
In short: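 GST-tagged NIK (1 nM) auto-phosphorylation with 5 µM ATP in Tris pH 7.5/MgCl2 buffer, 0.7% DMSO, 2 h at 25 °C. Phospho-IKK Ser176/180 antibody detected by AlphaScreen beads. Signal normalized to full-enzyme and no-ATP controls; IC50 from sigmoidal fit of % inhibition vs log concentration.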

[2] = tested on: p-IKKα levels in L363 (NIK translocated multiple myeloma) cells; experiment: Effect of compounds on p-IKKα levels in L363 cells (AlphaLISA SureFire Ultra); assay type: cell-based; conditions: Homo sapiens, L-363; L363 cells, BAFF stimulated, MG132, 6 h; average of values; read-out: Assay 2 IC50
In short: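 L363 myeloma cells were BAFF-stimulated (250 ng/ml) overnight in DMEM/0.5% BSA, then exposed 6 h at 37° C to compound (11-point 1:3 series, 0.3% DMSO) with BAFF plus 10 uM MG132. p-IKKα (Ser 176/180) was read by AlphaLISA SureFire Ultra in lysates. IC50 came from sigmoidal fits normalized to stimulated and unstimulated controls.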

Chain of Recombinant Human NF-Kappab-Inducing Kinase (NIK/MAP3K14) (Q99558 whole entry): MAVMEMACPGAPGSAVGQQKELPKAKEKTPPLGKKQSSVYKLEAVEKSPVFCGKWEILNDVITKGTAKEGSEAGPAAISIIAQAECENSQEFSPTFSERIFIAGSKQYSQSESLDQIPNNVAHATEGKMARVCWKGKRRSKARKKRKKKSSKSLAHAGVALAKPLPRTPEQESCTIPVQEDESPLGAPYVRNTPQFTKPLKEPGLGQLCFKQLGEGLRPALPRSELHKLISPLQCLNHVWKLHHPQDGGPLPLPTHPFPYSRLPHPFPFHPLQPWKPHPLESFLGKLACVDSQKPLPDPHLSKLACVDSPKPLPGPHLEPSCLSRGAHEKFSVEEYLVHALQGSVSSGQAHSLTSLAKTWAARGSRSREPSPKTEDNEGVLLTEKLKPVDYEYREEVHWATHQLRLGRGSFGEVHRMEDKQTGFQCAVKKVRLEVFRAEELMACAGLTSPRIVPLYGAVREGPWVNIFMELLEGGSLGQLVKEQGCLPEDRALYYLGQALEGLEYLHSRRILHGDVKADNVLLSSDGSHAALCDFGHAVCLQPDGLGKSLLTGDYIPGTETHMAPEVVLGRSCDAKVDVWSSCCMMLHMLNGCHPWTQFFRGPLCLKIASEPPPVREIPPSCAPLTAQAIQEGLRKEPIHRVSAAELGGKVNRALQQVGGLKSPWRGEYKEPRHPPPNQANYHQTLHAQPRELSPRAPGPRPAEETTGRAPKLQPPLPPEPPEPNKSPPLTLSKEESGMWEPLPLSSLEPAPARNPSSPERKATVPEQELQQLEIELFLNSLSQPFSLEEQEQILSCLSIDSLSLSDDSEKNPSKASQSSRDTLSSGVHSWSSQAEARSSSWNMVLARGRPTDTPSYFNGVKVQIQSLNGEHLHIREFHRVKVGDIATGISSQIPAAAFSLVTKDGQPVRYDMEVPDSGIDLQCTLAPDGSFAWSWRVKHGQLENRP

## CCn1ncc2cc(-c3cccc(-c4cc([C@]5(O)CCN(C)C5=O)on4)c3)cnc21 [Example 55, (R)-3-(3-(3-(1-Ethyl-1H-pyrazolo[3,4-b]pyridin-5-yl)phenyl)isoxazol-5-yl)-3-hydroxy-1-methylpyrrolidin-2-one]
[1]
  IC50: > 501 nM
[2]
  IC50: > 501 nM

## CN1CC[C@@](O)(c2cc(-c3cccc(-c4cc5c(o4)CCNC5=O)c3)no2)C1=O [Example 56, (R)-2-(3-(5-(3-hydroxy-1-methyl-2-oxopyrrolidin-3-yl)isoxazol-3-yl)phenyl)-6,7-dihydrofuro[3,2-c]pyridin-4(5H)-one]
[1]
  IC50: > 501 nM
[2]
  IC50: > 501 nM

## Cc1ncn2cc(-c3cccc(-c4cc([C@]5(O)CCN(C)C5=O)on4)c3)ccc12 [Example 57, (R)-3-Hydroxy-1-methyl-3-(3-(3-(1-methylimidazo[1,5-a]pyridin-6-yl)phenyl)isoxazol-5-yl)pyrrolidin-2-one]
[1]
  IC50: > 501 nM
[2]
  IC50: > 501 nM

## CN1CC[C@@](O)(c2cc(-c3cccc(-c4ccn5nccc5c4)c3)no2)C1=O [Example 58, (R)-3-hydroxy-1-methyl-3-(3-(3-(pyrazolo[1,5-a]pyridin-5-yl)phenyl)isoxazol-5-yl)pyrrolidin-2-one]
[1]
  IC50: 100 to 500 nM
[2]
  IC50: > 501 nM

## CN1CC[C@@](O)(c2cc(-c3cccc(-c4cccc5c4CNC5=O)c3)no2)C1=O [Example 59, (R)-4-(3-(5-(3-hydroxy-1-methyl-2-oxopyrrolidin-3-yl)isoxazol-3-yl)phenyl)isoindolin-1-one]
[1]
  IC50: > 501 nM
[2]
  IC50: > 501 nM

## Cc1ncc2cc(-c3cccc(-c4cc([C@]5(O)CCN(C)C5=O)on4)c3)ccn12 [Example 60, (R)-3-hydroxy-1-methyl-3-(3-(3-(3-methylimidazo[1,5-a]pyridin-7-yl)phenyl)isoxazol-5-yl)pyrrolidin-2-one]
[1]
  IC50: > 501 nM
[2]
  IC50: > 501 nM

## CN1CC[C@@](O)(c2cc(-c3cccc(-c4cnc5cnccn45)c3)no2)C1=O [Example 61, (R)-3-Hydroxy-3-(3-(3-(imidazo[1,2-a]pyrazin-3-yl)phenyl)isoxazol-5-yl)-1-methylpyrrolidin-2-one]
[1]
  IC50: 100 to 500 nM
[2]
  IC50: > 501 nM

## CN1CC[C@@](O)(c2cc(-c3cccc(-c4ccc5ncn(C)c5c4)c3)no2)C1=O [Example 62, (R)-3-Hydroxy-1-methyl-3-(3-(3-(1-methyl-1H-benzo[d]imidazol-6-yl)phenyl)isoxazol-5-yl)pyrrolidin-2-one]
[1]
  IC50: > 501 nM
[2]
  IC50: > 501 nM

## Cc1nc2cc(-c3cccc(-c4cc([C@]5(O)CCN(C)C5=O)on4)c3)ccc2o1 [Example 63, (R)-3-Hydroxy-1-methyl-3-(3-(3-(2-methylbenzo[d]oxazol-5-yl)phenyl)isoxazol-5-yl)pyrrolidin-2-one]
[1]
  IC50: > 501 nM
[2]
  IC50: > 501 nM

## CN1CC[C@@](O)(c2cc(-c3cccc(-c4ccn5ncccc45)c3)no2)C1=O [Example 64, (R)-3-Hydroxy-1-methyl-3-(3-(3-(pyrrolo[1,2-b]pyridazin-5-yl)phenyl)isoxazol-5-yl)pyrrolidin-2-one]
[1]
  IC50: > 501 nM
[2]
  IC50: > 501 nM

## Cc1cn2nc(-c3cccc(-c4cc([C@]5(O)CCN(C)C5=O)on4)c3)ccc2n1 [Example 65, (R)-3-Hydroxy-1-methyl-3-(3-(3-(2-methylimidazo[1,2-b]pyridazin-6-yl)phenyl)isoxazol-5-yl)pyrrolidin-2-one]
[1]
  IC50: > 501 nM
[2]
  IC50: > 501 nM

## CN1CC[C@@](O)(c2cc(-c3cccc(-c4ccc5occc5n4)c3)no2)C1=O [Example 66, (R)-3-(3-(3-(Furo[3,2-b]pyridin-5-yl)phenyl)isoxazol-5-yl)-3-hydroxy-1-methylpyrrolidin-2-one]
[1]
  IC50: > 501 nM
[2]
  IC50: > 501 nM

## CN1CC[C@@](O)(c2cc(-c3cccc(-c4ccn5cncc5c4)c3)no2)C1=O [Example 67, (R)-3-Hydroxy-3-(3-(3-(imidazo[1,5-a]pyridin-7-yl)phenyl)isoxazol-5-yl)-1-methylpyrrolidin-2-one]
[1]
  IC50: 100 to 500 nM
[2]
  IC50: > 501 nM

Reference: patent US20250282785A1, “PYRROLIDINONE DERIVATIVES AS INHIBITORS OF NF KAPPA B INDUCING KINASE” (priority 2022, published 2025)
